Results on five molecules are retold here after patent publication US9145351B2, “Azole derivatives, methods for producing the same, intermediate thereof, agro-horticultural agents” (KUREHA CORPORATION, priority 2009, dated 2015).

SMILES strings stand for the structures.

What all share (format): cell-based
The test system of experiment [1] is Ustilago nuda. The experiment can be described thus: Plate medium fungicidal assay, barley loose smut U.n (Experimental Example 5). On the procedure: (§1) In this Experimental Example, the fungicidal effects of the inventive compounds on various phytopathogenic fungi for plants and hazardous microorganism for industrial materials were examined by the methods described below. Each inventive compound was dissolved in 2 ml of dimethyl sulfoxide. 0.6 ml of this solution was added to 60 nil of a PDA medium (potato dextrose agar medium) at about 60 degrees C., which was mixed thoroughly in a 100-ml conical flask, and poured into a dish, where it was solidified, thereby obtaining a plate medium containing the inventive compound at 50 mg/L and 5 mg/L. On the other hand, a subject microorganism previously cultured on a plate medium was cut out using a cork borer whose diameter was 4 mm, and inoculated to the test compound-containing plate medium described above. […] The growth degree of the microorganism on the test compound-containing plate medium thus observed was compared with the growth degree of the microorganism in the untreated group, and % mycelial growth inhibition was calculated by the following equation. R=100(dc−dt)/dc wherein R=% mycelial extension inhibition, dc=flora diameter in untreated plate, dt=flora diameter in treated plate. The results obtained as described above were evaluated as one of the 5 grades according to the following criteria. […] Barley loose smut (Ustilago nuda) U.n

For experiment [2], the system named is Giberella fujikuroi. The experiment in a line: Plate medium fungicidal assay, rice bakanae disease G.f (Experimental Example 5). The protocol: as §1, with “Rice bakanae disease (Giberella fujikuroi) G.f” for “Barley loose smut (Ustilago nuda) U.n”
Experiment [3] deals with Alternaria alternata. The experiment can be described thus: Plate medium fungicidal assay, Alternaria blotch A.m (Experimental Example 5). On the procedure: as §1, with “Alternaria blotch (Alternaria alternata) A.m” for “Barley loose smut (Ustilago nuda) U.n”
Experiment [4] deals with Pyricularia oryzae. The experiment in a line: microbe, parasite or virus in culture.
Experiment [5] has as its system Fusarium graminearum. The experiment in a line: microbe, parasite or virus in culture.
Experiment [6] relates to Sclerotinia sclerotiorum. The experiment can be described thus: Plate medium fungicidal assay, Sclerotinia rot S.s (Experimental Example 5). The protocol: as §1, with “Sclerotinia rot (Sclerotinia sclerotiorum) S.s” for “Barley loose smut (Ustilago nuda) U.n”
Setting [7] is: plate medium containing compound at 5 mg/L.
[8] abbreviates: plate medium containing compound at 50 mg/L.

Consider `C[C@]1(CCl)CC[C@@H](Cc2ccc(OC(F)(F)F)cc2)[C@]1(O)Cn1cncn1` (relative stereo) [Compound I-79], for which the “Growth inhibition grade, U.n” value in experiment [1] (setting [7]) and in experiment [1] (setting [8]) was 5 (% Mycerial growth inhibition of 80% or higher) each time. In addition, the “Growth inhibition grade, G.f” value in experiment [2] (setting [7]) and in experiment [2] (setting [8]) was 5 (% Mycerial growth inhibition of 80% or higher) throughout. Also, the “Growth inhibition grade, A.m” value in experiment [3] (setting [7]) and in experiment [3] (setting [8]) was 5 (% Mycerial growth inhibition of 80% or higher) throughout. Moreover, the “Growth inhibition grade, P.o” value in experiment [4] (setting [7]) and in experiment [4] (setting [8]) was 5 (% Mycerial growth inhibition of 80% or higher) each time. Moreover, the “Growth inhibition grade, F.g” value in experiment [5] (setting [7]) and in experiment [5] (setting [8]) was 5 (% Mycerial growth inhibition of 80% or higher) throughout. The “Growth inhibition grade, S.s” value in experiment [6] (setting [7]) and in experiment [6] (setting [8]) was 5 (% Mycerial growth inhibition of 80% or higher) in each case.
On to `Cc1ccc(C[C@@H]2CC[C@](C)(CCl)[C@@]2(O)Cn2cncn2)cc1` (relative stereo) [Compound I-80], for which the “Growth inhibition grade, U.n” value in experiment [1] (setting [7]) and in experiment [1] (setting [8]) was 5 (% Mycerial growth inhibition of 80% or higher) throughout. The “Growth inhibition grade, G.f” value in experiment [2] (setting [7]) and in experiment [2] (setting [8]) was 5 (% Mycerial growth inhibition of 80% or higher) throughout. Further, the “Growth inhibition grade, A.m” value in experiment [3] (setting [7]) and in experiment [3] (setting [8]) was 5 (% Mycerial growth inhibition of 80% or higher) each time. Moreover, the “Growth inhibition grade, P.o” value in experiment [4] (setting [7]) and in experiment [4] (setting [8]) was 5 (% Mycerial growth inhibition of 80% or higher) each time. Moreover, the “Growth inhibition grade, F.g” value in experiment [5] (setting [7]) and in experiment [5] (setting [8]) was 5 (% Mycerial growth inhibition of 80% or higher) each time. In addition, the “Growth inhibition grade, S.s” value in experiment [6] (setting [7]) and in experiment [6] (setting [8]) was 5 (% Mycerial growth inhibition of 80% or higher) each time.
As to `C[C@]1(CCl)CC[C@@H](Cc2ccccc2F)[C@]1(O)Cn1cncn1` (relative stereo) [Compound I-86], the “Growth inhibition grade, U.n” value in experiment [1] (setting [7]) and in experiment [1] (setting [8]) was 5 (% Mycerial growth inhibition of 80% or higher) throughout. The “Growth inhibition grade, G.f” value in experiment [2] (setting [7]) and in experiment [2] (setting [8]) was 5 (% Mycerial growth inhibition of 80% or higher) in each case. The “Growth inhibition grade, A.m” value in experiment [3] (setting [7]) is 4 (% Mycerial growth inhibition of less than 80 to 60% or higher); in experiment [3] (setting [8]), 5 (% Mycerial growth inhibition of 80% or higher). The “Growth inhibition grade, P.o” value in experiment [4] (setting [7]) and in experiment [4] (setting [8]) was 5 (% Mycerial growth inhibition of 80% or higher) each time. For the same molecule, the “Growth inhibition grade, F.g” value in experiment [5] (setting [7]) and in experiment [5] (setting [8]) was 5 (% Mycerial growth inhibition of 80% or higher) in each case. The “Growth inhibition grade, S.s” value in experiment [6] (setting [7]) and in experiment [6] (setting [8]) was 5 (% Mycerial growth inhibition of 80% or higher) throughout.
For `C[C@@]1(CCl)CC[C@@H](Cc2cccc(Cl)c2)[C@]1(O)Cn1cncn1` (relative stereo) [Compound I-174], the “Growth inhibition grade, U.n” value in experiment [1] (plate medium, 5 mg/L) is listed as 4 (% Mycerial growth inhibition of less than 80 to 60% or higher); in experiment [1] (plate medium, 50 mg/L), 5 (% Mycerial growth inhibition of 80% or higher). Further, the “Growth inhibition grade, G.f” value is given as 5 (% Mycerial growth inhibition of 80% or higher) in experiment [2] (plate medium, 5 mg/L) and 5 (% Mycerial growth inhibition of 80% or higher) in experiment [2] (plate medium, 50 mg/L). The “Growth inhibition grade, A.m” value in experiment [3] (plate medium, 5 mg/L) is 5 (% Mycerial growth inhibition of 80% or higher); in experiment [3] (plate medium, 50 mg/L), 5 (% Mycerial growth inhibition of 80% or higher). The “Growth inhibition grade, P.o” value in experiment [4] (plate medium, 5 mg/L) is 5 (% Mycerial growth inhibition of 80% or higher); in experiment [4] (plate medium, 50 mg/L), 5 (% Mycerial growth inhibition of 80% or higher). Further, the “Growth inhibition grade, F.g” value is recorded as 5 (% Mycerial growth inhibition of 80% or higher) in experiment [5] (plate medium, 5 mg/L) and 5 (% Mycerial growth inhibition of 80% or higher) in experiment [5] (plate medium, 50 mg/L). Also, the “Growth inhibition grade, S.s” value in experiment [6] (plate medium, 5 mg/L) is on record as 5 (% Mycerial growth inhibition of 80% or higher); in experiment [6] (plate medium, 50 mg/L), 5 (% Mycerial growth inhibition of 80% or higher).
On to `C[C@@]1(CCl)CC[C@@H](Cc2ccc(Cl)cc2)[C@]1(O)Cn1cncn1` (racemic) [Compound I-101], for which the “Growth inhibition grade, U.n” value in experiment [1] (setting [7]) and in experiment [1] (setting [8]) was 5 (% Mycerial growth inhibition of 80% or higher) each time. Further, the “Growth inhibition grade, G.f” value in experiment [2] (setting [7]) and in experiment [2] (setting [8]) was 5 (% Mycerial growth inhibition of 80% or higher) throughout. The “Growth inhibition grade, A.m” value in experiment [3] (setting [7]) and in experiment [3] (setting [8]) was 5 (% Mycerial growth inhibition of 80% or higher) in each case. Moreover, the “Growth inhibition grade, P.o” value in experiment [4] (setting [7]) and in experiment [4] (setting [8]) was 5 (% Mycerial growth inhibition of 80% or higher) in each case. For the same molecule, the “Growth inhibition grade, F.g” value in experiment [5] (setting [7]) and in experiment [5] (setting [8]) was 5 (% Mycerial growth inhibition of 80% or higher) each time. Further, the “Growth inhibition grade, S.s” value in experiment [6] (setting [7]) and in experiment [6] (setting [8]) was 5 (% Mycerial growth inhibition of 80% or higher) throughout.
